{"source": "patent US20150051387A1", "about": "“WATER SOLUBLE PLATINUM COMPLEXES FOR TUMOR TREATMENT AND PROCESS OF PREPARING SAME” (GUDUI BIOPHARMA TECHNOLOGY INC., priority 2011, published 2015)", "key": {"[1]": {"system": "L1210 tumor cells", "experiment": "Antitumor efficacy in L1210 leukemia-bearing CDF1 mice (Experiment-2)", "type": "in vivo", "conditions": "for Weight Changes: first day to seventh day", "procedure": "In the following test, antitumor efficacy studies were performed using 8-9 weeks old female CDF1 mice, the average weight of the animal is 20-25 grams. L1210 tumor cells (about 10^5 cells per mouse) were inoculated intraperitoneally. The water-soluble platinum complexes were used to treat the tumor-bearing animals and the efficacy was compared compared with the clinical platinum antitumor drugs. […] Drugs were administered intraperitoneally on day 1 and day 4 after tumor cell transplantation. The number of experimental animals in each group was 6.\nThe experimental animals were purchased from Vital River Laboratory Animal Technology Co. Ltd., Tumor cells L1210-leukemia cells were purchased from Shanghai An Yan Commercial Trade Co. Ltd.\nThe increase in life span (ILS) is calculated as follows:\nWherein, St=the weighted median survival time of treated animals; Su=the weighted median survival time of untreated animals"}, "[2]": {"experiment": "Solubility in water at room temperature (Experiment-1)"}, "[3]": {"conditions": "1.25 mg/Kg i.p. day 1 and day 4"}}}
{"compound": "N.N.[Cl][Pt][Cl]", "note": "[Cisplatin, cisplatin]", "values": [{"measurement": "Survival Animals on Day 42", "setting": "[1]; [3]", "result": "0/6"}, {"measurement": "Weight Changes", "setting": "[1]; [3]", "result": "+1.1 g"}, {"measurement": "Survival Animals on Day 42", "setting": "[1]; 2.5 mg/Kg i.p. day 1 and day 4", "result": "1/6"}, {"measurement": "Weight Changes", "setting": "[1]; 2.5 mg/Kg i.p. day 1 and day 4", "result": -0.6, "unit": "g"}, {"measurement": "Survival Animals on Day 42", "setting": "[1]; 5.0 mg/Kg i.p. day 1 and day 4", "result": "3/6"}, {"measurement": "Weight Changes", "setting": "[1]; 5.0 mg/Kg i.p. day 1 and day 4", "result": -2.2, "unit": "g"}]}
{"compound": "cis-[trans-(1R,2R)-diamino cyclohexane] Pt (II) (1-O-D-glucoside-propane-3-chloro-3,3-dicarboxylate) [Example 1]", "values": [{"measurement": "ILS", "setting": "[1]; 50 mg/Kg i.p. day 1 and day 4", "result": ">425", "unit": "%"}, {"measurement": "Survival Animals on Day 42", "setting": "[1]; 50 mg/Kg i.p. day 1 and day 4", "result": "6/6"}, {"measurement": "Weight Changes", "setting": "[1]; 50 mg/Kg i.p. day 1 and day 4", "result": "+1.1 g"}, {"measurement": "ILS", "setting": "[1]; 100 mg/Kg i.p. day 1 and day 4", "result": ">425", "unit": "%"}, {"measurement": "Survival Animals on Day 42", "setting": "[1]; 100 mg/Kg i.p. day 1 and day 4", "result": "6/6"}, {"measurement": "Weight Changes", "setting": "[1]; 100 mg/Kg i.p. day 1 and day 4", "result": "+0 g"}, {"measurement": "ILS", "setting": "[1]; 200 mg/Kg i.p. day 1 and day 4", "result": ">425", "unit": "%"}, {"measurement": "Survival Animals on Day 42", "setting": "[1]; 200 mg/Kg i.p. day 1 and day 4", "result": "6/6"}, {"measurement": "Weight Changes", "setting": "[1]; 200 mg/Kg i.p. day 1 and day 4", "result": -0.4, "unit": "g"}]}
{"compound": "N.N.O=C([O-])C1(C(=O)[O-])CCC1.[Pt+2]", "note": "[Carboplatin, carboplatin]", "values": [{"measurement": "solubility", "setting": "[2]", "result": 16.6, "unit": "mg/1 mL H2O"}, {"measurement": "Survival Animals on Day 42", "setting": "[1]; 24 mg/Kg i.p. day 1 and day 4", "result": "0/6"}, {"measurement": "Weight Changes", "setting": "[1]; 24 mg/Kg i.p. day 1 and day 4", "result": "+0.6 g"}, {"measurement": "Survival Animals on Day 42", "setting": "[1]; 40 mg/Kg i.p. day 1 and day 4", "result": "0/6"}, {"measurement": "Weight Changes", "setting": "[1]; 40 mg/Kg i.p. day 1 and day 4", "result": -0.4, "unit": "g"}, {"measurement": "Survival Animals on Day 42", "setting": "[1]; 80 mg/Kg i.p. day 1 and day 4", "result": "1/6"}, {"measurement": "Weight Changes", "setting": "[1]; 80 mg/Kg i.p. day 1 and day 4", "result": -1.2, "unit": "g"}]}
